Laboratory results as given in ChEMBL document CHEMBL5465560, “Selectivity Literature for EUbOPEN Chemogenomic Library” (2024).
Values belong to the compound of their own block, whether it stands above or below them.

What was measured:
[1] = biological target: Protein arginine N-methyltransferase 8 (Homo sapiens, UniProt Q9NR22); experiment: Selectivity interaction (Methyltransferase screen (radiometric assays, panel of 8 PRMTs, 21 protein lysine methyltransferases, 3 DNA methyltransferases, and one RNA methyltransferase)) EUB0000271b PRMT8
Chain of Protein arginine N-methyltransferase 8 (Q9NR22 2-394 limits assumed): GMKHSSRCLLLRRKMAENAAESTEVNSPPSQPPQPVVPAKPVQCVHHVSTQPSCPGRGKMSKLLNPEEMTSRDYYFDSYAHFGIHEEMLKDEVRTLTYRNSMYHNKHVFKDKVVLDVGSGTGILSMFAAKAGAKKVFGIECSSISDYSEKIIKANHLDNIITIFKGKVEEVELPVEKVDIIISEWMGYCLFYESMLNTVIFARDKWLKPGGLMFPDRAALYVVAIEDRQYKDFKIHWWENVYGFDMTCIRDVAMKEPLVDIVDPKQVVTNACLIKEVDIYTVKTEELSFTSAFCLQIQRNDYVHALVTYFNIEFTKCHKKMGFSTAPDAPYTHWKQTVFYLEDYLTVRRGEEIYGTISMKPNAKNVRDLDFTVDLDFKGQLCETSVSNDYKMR

[2] = biological target: Serine/threonine-protein kinase 38-like (Homo sapiens) (UniProt Q9Y2H1); experiment: Selectivity interaction (Ambit KINOMEscan and KiNATiv profiling in Jurkat cells) EUB0000090b STK38L; type: cell-based; details: at 1 µM
[3] = biological target: Eukaryotic translation initiation factor 2-alpha kinase 1 (Homo sapiens) (UniProt Q9BQI3); experiment: Selectivity interaction (KinomeScan (DiscoverX)) EUB0000655a EIF2AK1; details: at 10 µM
[4] = biological target: T1, Hormonally up-regulated neu tumor-associated kinase (Homo sapiens) (UniProt P57058); experiment: Selectivity interaction (KinomeScan (DiscoverX)) EUB0000607a HUNK; details: at 10 µM
T1 sequence (whole entry): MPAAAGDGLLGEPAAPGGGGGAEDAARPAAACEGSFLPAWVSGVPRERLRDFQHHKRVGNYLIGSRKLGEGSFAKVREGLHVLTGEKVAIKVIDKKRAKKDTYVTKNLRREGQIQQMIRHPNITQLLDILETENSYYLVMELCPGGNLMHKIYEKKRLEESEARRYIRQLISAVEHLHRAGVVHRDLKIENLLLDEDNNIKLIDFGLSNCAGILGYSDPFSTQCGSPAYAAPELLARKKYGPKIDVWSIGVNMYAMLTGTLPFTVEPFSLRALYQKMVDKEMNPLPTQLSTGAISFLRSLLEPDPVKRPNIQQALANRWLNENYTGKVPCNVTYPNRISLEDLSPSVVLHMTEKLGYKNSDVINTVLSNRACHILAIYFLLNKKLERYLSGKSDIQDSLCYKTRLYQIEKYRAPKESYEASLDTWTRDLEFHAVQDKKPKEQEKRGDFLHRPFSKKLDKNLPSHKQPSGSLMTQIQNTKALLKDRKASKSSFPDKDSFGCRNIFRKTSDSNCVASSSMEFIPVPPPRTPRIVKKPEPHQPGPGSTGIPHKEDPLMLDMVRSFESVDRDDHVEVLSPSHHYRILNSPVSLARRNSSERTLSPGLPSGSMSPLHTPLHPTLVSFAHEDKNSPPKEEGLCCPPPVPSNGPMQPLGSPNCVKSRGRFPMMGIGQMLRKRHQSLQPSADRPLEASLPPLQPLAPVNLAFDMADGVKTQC

[5] = biological target: Insulin-like growth factor 1 receptor (Homo sapiens, UniProt P08069); experiment: Selectivity interaction (Upstate Kinase Profiler service (Millipore)) EUB0000056c IGF1R; details: at 1 µM
Chain of Insulin-like growth factor 1 receptor (P08069 31-736 limits assumed): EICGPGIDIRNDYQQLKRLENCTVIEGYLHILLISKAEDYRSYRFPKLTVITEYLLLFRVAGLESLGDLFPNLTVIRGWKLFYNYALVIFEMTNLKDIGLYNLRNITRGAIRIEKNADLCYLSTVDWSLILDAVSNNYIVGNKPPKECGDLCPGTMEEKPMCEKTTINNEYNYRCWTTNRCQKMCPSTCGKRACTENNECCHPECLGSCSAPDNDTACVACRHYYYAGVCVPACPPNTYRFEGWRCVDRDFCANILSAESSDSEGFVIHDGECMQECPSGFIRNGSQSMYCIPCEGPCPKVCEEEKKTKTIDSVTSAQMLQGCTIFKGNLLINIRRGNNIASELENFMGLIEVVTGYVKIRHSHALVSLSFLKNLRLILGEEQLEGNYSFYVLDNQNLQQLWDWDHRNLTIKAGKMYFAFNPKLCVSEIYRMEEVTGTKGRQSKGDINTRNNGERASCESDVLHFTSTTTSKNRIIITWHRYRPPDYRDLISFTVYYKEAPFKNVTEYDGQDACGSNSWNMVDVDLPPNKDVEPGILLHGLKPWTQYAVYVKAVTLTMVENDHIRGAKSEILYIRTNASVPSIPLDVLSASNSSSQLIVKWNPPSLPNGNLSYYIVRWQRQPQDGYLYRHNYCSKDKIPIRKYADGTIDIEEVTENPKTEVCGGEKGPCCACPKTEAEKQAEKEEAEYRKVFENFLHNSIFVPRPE
Chain of Insulin-like growth factor 1 receptor (P08069 741-1367 limits assumed): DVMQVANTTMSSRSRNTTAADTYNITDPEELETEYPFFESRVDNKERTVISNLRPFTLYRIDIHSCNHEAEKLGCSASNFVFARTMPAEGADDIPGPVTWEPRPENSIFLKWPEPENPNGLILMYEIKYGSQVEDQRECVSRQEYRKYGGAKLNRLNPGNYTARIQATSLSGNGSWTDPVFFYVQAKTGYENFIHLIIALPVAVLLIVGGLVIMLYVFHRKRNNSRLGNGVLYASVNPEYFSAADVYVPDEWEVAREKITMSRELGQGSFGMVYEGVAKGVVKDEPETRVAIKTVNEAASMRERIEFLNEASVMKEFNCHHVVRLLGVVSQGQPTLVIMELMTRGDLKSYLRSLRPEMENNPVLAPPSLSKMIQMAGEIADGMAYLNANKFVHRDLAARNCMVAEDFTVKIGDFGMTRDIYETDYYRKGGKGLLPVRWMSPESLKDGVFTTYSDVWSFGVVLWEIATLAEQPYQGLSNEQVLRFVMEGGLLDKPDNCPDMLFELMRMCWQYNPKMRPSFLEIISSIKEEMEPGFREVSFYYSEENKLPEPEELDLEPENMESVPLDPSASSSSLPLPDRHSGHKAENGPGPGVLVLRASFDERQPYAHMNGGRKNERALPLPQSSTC

[6] = biological target: Protein arginine N-methyltransferase 1 (Homo sapiens, UniProt Q99873); details: at 1 µM
Chain of Protein arginine N-methyltransferase 1 (Q99873 whole entry, looked up): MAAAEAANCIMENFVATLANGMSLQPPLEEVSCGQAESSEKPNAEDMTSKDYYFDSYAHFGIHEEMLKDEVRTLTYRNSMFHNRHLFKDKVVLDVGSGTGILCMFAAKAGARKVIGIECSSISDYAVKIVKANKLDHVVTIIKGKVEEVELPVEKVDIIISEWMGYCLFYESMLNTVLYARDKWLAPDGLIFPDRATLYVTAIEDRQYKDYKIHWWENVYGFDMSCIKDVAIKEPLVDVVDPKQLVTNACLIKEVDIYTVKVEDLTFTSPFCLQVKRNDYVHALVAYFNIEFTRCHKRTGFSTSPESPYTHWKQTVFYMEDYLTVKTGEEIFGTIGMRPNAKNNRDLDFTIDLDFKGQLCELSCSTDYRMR

[7] = biological target: Serine/threonine-protein kinase pim-2 (Homo sapiens, UniProt Q9P1W9); details: at 10 µM
Chain of Serine/threonine-protein kinase pim-2 (Q9P1W9 whole entry, looked up): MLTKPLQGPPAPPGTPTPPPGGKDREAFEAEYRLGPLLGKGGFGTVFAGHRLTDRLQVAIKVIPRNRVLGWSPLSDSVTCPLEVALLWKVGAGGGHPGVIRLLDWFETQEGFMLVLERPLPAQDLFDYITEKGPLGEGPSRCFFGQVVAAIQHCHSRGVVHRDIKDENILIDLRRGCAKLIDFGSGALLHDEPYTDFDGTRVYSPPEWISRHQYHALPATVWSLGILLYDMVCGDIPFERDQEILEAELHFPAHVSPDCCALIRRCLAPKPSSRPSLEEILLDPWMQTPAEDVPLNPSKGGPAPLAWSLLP

[8] = biological target: Dual specificity testis-specific protein kinase 1 (Homo sapiens) (UniProt Q15569); details: at 10 µM
Chain of Dual specificity testis-specific protein kinase 1 (Homo sapiens) (Q15569 whole entry, looked up): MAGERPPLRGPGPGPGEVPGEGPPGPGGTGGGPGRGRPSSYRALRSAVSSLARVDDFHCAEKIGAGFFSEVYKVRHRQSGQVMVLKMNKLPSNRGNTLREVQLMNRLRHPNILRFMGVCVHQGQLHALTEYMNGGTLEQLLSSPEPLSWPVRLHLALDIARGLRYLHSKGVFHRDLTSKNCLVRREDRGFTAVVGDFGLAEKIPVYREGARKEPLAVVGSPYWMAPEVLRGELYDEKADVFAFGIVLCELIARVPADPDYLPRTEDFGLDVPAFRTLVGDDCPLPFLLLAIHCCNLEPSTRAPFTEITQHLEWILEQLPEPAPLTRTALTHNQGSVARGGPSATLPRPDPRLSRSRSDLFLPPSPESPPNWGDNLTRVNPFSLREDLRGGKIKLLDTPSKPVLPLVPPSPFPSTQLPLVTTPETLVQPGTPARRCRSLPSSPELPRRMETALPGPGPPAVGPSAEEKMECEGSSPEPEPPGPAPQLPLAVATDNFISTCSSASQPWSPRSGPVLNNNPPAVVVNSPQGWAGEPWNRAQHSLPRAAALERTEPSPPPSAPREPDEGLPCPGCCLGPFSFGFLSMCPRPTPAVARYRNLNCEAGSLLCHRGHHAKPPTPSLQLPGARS

[9] = biological target: SRSF protein kinase 2 (Homo sapiens) (UniProt P78362); experiment: Selectivity interaction (Kinase panel (Invitrogen)) EUB0000639a SRPK2; details: at 200 nM
Chain of SRSF protein kinase 2 (Homo sapiens) (P78362 whole entry, looked up): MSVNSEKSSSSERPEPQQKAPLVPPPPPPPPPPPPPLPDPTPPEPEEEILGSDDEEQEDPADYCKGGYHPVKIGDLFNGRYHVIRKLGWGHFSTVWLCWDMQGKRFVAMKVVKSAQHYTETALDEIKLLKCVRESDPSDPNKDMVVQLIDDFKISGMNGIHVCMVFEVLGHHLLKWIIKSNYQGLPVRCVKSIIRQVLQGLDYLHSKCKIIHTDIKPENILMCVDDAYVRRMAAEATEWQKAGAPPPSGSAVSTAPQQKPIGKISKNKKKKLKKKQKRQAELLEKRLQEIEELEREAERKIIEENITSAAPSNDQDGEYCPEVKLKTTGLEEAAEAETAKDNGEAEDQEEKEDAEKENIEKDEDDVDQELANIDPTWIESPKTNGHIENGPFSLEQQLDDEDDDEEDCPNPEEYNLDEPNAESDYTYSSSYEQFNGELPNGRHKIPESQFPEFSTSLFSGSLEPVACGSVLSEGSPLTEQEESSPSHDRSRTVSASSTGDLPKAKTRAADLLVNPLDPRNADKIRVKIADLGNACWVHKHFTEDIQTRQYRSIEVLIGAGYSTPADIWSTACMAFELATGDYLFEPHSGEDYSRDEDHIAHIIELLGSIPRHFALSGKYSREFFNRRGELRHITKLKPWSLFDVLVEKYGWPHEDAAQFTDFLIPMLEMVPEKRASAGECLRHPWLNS

[10] = biological target: Tyrosine-protein kinase JAK1 (Homo sapiens, UniProt P23458); experiment: Selectivity interaction (KinomeScan (DiscoverX)) EUB0000229b JAK1; details: at 10 µM
Chain of Tyrosine-protein kinase JAK1 (P23458 whole entry, the tested form may be a part): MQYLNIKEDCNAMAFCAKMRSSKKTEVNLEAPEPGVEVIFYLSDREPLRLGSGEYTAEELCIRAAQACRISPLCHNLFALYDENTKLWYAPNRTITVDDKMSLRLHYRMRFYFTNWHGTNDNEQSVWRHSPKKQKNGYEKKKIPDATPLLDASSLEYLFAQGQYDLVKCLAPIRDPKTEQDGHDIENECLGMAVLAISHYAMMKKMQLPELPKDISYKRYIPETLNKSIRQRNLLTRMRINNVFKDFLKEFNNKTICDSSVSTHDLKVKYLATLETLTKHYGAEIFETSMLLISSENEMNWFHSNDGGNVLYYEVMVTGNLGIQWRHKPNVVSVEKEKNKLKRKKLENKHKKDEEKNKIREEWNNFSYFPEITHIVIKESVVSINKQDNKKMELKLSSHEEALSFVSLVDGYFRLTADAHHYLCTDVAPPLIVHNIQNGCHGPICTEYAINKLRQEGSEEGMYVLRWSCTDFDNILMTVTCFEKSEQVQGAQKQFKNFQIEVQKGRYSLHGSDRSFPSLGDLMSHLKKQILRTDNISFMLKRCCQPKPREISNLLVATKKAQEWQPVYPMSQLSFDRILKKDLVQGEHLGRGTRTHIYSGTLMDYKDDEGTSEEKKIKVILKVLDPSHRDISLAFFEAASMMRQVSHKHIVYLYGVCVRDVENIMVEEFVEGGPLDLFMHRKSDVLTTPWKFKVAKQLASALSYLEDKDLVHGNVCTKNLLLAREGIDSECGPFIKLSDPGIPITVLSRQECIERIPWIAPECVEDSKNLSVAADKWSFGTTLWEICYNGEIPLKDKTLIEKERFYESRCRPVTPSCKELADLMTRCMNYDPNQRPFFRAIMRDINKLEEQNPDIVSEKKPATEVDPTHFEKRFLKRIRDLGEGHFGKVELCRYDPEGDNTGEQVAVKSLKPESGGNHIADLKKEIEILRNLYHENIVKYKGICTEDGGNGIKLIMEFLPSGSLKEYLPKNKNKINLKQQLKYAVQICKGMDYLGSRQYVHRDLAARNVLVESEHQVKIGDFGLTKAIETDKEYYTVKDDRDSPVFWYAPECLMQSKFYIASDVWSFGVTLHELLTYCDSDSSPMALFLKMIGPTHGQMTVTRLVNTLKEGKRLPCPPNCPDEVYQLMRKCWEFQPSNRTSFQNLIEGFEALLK

[11] = system: T2, Discoidin domain-containing receptor 2 (Homo sapiens), Q16832 [T654M]; experiment: Selectivity interaction (ProQinase) EUB0000171b DDR2
T2 sequence (whole entry): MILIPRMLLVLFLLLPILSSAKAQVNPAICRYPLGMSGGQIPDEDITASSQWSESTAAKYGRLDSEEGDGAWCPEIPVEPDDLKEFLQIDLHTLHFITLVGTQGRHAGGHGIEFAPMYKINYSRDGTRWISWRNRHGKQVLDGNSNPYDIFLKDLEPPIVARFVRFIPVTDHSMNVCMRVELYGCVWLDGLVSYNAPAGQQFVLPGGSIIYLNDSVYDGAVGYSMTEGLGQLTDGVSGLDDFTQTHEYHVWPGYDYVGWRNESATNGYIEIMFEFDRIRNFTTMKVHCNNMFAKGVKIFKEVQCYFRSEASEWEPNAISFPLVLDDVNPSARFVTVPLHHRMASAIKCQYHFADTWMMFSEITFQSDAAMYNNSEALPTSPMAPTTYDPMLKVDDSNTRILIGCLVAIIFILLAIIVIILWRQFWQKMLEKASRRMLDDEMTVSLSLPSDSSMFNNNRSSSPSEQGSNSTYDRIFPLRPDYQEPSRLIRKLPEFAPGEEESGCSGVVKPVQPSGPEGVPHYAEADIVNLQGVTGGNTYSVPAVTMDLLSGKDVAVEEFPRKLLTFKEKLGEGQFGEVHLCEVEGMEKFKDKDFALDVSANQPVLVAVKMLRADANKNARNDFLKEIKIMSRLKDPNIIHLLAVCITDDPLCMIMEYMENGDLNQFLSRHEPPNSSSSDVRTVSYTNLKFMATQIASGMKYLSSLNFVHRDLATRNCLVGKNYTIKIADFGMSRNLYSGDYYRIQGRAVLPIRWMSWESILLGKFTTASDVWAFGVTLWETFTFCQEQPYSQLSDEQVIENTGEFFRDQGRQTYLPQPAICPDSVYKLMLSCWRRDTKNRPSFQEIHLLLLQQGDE

[12] = biological target: Beta-2 adrenergic receptor (Homo sapiens, UniProt P07550); experiment: Selectivity interaction (Panel of kinases, GPCRs, ion channels and transporters (enzymatic assay)) EUB0000223bCl ADRB2

SMILES: Cc1cc(C)cc([C@@H]2c3cc(C)ccc3NC(=O)CN2C(=O)c2ccc(Br)s2)c1
% of activity ([1]; at 1 µM): 101%
% of activity ([1]; at 10 µM): 96%

SMILES: CN(C)C/C=C/C(=O)Nc1ccc(C(=O)N2CCCC(Nc3ncc(Cl)c(-c4c[nH]c5ccccc45)n3)C2)cc1 (centres undefined)
% of control [2]: 82%

SMILES: CN(C)CCOc1ccc(-c2nc(-c3ccncc3)c(-c3ccc4c(c3)CC/C4=N\O)[nH]2)cc1
% of control [3]: 58%

SMILES: CNC(=O)Nc1ccc(-c2nc(N3CC4CCC(C3)O4)c3cnn(C4CCC5(CC4)OCCO5)c3n2)cc1
% of control [4]: 100%

% of inhibition [5]: 0%
SMILES: Cc1ccc(-c2ccc3c(ccc4sc5c(c43)NC[C@@H](C)NC5=O)n2)cn1

% activity [6]: > 90%
SMILES: CNCCN1CCC(c2cc(CN(C)C(=O)c3cccc(Oc4ccccc4)c3)ccn2)CC1

SMILES: Cc1cc([C@@H](C)Nc2ccccc2C(=O)O)c2nc(N3CCOCC3)cc(=O)n2c1 [AZD-6482]
% of control [7]: 70%
% of control [8]: 100%

% of inhibition [9]: -1.85%
SMILES: CC[C@@H]1[C@H](F)C(=O)N[C@@H]1COc1nccc2cc(C(N)=O)c(OC)cc12 [ZIMLOVISERTIB]

SMILES: COc1cc(N(C)c2ccnc3ccc(C(F)(F)F)cc23)cc(OC)c1OC
% binding [10]: 82%

% of control ([11]; at 1 µM): 89%
% of control ([11]; at 5 µM): 70%
SMILES: C=CC(=O)Nc1cccc(C(=O)Nc2ccc(Nc3cc(-c4[nH]c(SC)nc4C)ccn3)cc2)c1

SMILES: COc1cc(C(=O)N2CC[C@@H](O)[C@@H](N)C2)cc2nc(-c3cc4ccccc4n3CC3CC3)n(C)c12
pXC50 [12]: < 4.5 M
